Measured values reported in US20250228824A1, “COMPOSITIONS AND METHODS FOR INHIBITION OF ITO AS TREATMENT FOR THE J WAVE SYNDROMES AND HYPOTHERMIA” (Lankenau Institute for Medical Research, priority 2021, published 2025).

Assays:
[1] = biological target: T1, KV4.3 (Ito) (Canis lupus familiaris, UniProt A0A8I3NA05); test: Whole-cell patch clamp of Ito in dissociated canine ventricular epicardial myocytes; format: cell-based
T1 sequence (A0A8I3NA05 1-655): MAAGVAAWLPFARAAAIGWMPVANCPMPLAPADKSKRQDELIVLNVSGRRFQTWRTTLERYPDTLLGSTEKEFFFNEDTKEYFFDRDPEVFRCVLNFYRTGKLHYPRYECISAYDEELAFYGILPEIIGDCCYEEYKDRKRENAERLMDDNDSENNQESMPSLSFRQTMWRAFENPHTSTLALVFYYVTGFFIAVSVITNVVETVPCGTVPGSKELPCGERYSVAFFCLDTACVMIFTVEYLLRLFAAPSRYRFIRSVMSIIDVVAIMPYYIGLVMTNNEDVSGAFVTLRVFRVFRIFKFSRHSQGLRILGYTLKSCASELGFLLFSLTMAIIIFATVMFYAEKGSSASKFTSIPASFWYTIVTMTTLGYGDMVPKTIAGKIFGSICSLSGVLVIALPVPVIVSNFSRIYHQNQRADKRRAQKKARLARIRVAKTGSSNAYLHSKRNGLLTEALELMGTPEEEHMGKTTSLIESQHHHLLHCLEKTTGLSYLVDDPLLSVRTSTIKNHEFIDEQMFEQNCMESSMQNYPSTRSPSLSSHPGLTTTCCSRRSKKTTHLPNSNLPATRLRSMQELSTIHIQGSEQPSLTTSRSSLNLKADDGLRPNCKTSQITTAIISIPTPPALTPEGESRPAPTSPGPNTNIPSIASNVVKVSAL
Method: Single myocytes were isolated from coronary-perfused canine right or left ventricular wedge preparations via enzymatic dissociation. Briefly, the wedge preparations were coronary perfused with nominally Ca^+2-free Tyrode's solution for a period of 15 min. They were then subjected to enzymatic digestion in nominally Ca^2+-free solution supplemented with 0.6 mg/ml collagenase (type II; Worthington) and 0.075 mg/ml protease (type XIV; Sigma) for 25-35 min. The wedge preparation was then perfused for 15 min with a taurine buffer solution containing (in mM): 108 NaCl, 10 HEPES, 11 D-glucose, 4 KCl, 1.2 MgSO4, 1.2 NaH2PO4, 50 taurine and 0.025 CaCl2. pH was adjusted to 7.4 using NaOH. After perfusion, thin slices of tissue were cut from the epicardial surface to obtain single epicardial cells as previously described.^6
Ito and APs were measured in isolated RV or LV myocytes. APs were measured in the current-clamp mode in the whole-cell configuration. APs were initiated using intracellular current injection and recorded continuously by means of Clampex software (Axon Instruments/Molecular Devices) at a sampling frequency of […]. Ito was measured using the Axopatch 200B-2 amplifier in V-Clamp mode.
Ito was recorded in isolated ventricular epicardial cells at 37° C. using whole-cell patch clamp techniques. Ito was elicited using a series of 350 ms voltage steps between −50 mV and +40 mV from a holding potential of −90 mV. A 15 ms prepulse to −20 mV was used to discharge the sodium current. Interpulse interval was 50 ms. The amplitude of Ito was determined by subtracting […] at the end of the pulse. The total charge carried by Ito was determined by calculating the area under the Ito current waveform. The extracellular solution contained (in mM): 140 NaCl, 4 KCl, 1.8 CaCl2, 1.2 MgCl2, 10 HEPES, and 10 glucose, pH 7.4 (adjusted with NaOH). The intracellular solution contained (in mM): 120 KCl, 1.5 MgCl2, 10 HEPES, 0.5 EGTA, 0.01 CaCl2, 5 MgATP, pH 7.2 (adjusted with NaOH). Following baseline measurements, recordings was repeated during exposure to AR-787.

[2] = biological target: T2, Nav1.5 (peak INa) (Homo sapiens, UniProt Q14524); test: Automated patch clamp (Qube-384) of INa in HEK cells transfected with SCN5A+SCN1B; format: cell-based; conditions: human, pH 7.4; 50 μM; holding potential −90 mV
T2 construct: expressed in transfected cells; host or cells: HEK cells, transfected with Lipofectamine 2000
Method: HEK cells transiently transfected with wild-type SCN5A (α subunit—Nav1.5) together with SCN1B (β1 subunit) using Lipofectamine 2000 were used to assess the effect of AR-787 on the cardiac sodium channel current (INa). All cells were incubated at 37° C./5% CO2. All cell culture reagents were purchased from Thermo Fisher Scientific (Waltham, MA).
The effect of AR-787 on cardiac sodium channel current was evaluated in HEK cells co-transfected with SCN5A and SCN1B. INa was measured in the whole-cell configuration using a Qube-384 (Sophion A/S, Copenhagen, Denmark) automated voltage clamp system. A flipped Na^+ gradient was used where the extracellular solution contained (in mM): 125 choline chloride, 1 NaCl, 5 KCl, 2 CaCl2, 1 MgCl2, 10 HEPES/NaOH, pH 7.4 (adjusted with NaOH), and the intracellular solution contained (in mM): 115 NaF, 15 CsCl2, 5 CsF, 3 Na2ATP, 0.3 Na2GTP, 2 MgCl2, 0.1 CaCl2, 10 EGTA, and 10 HEPES/CsOH, pH 7.2 (adjusted with NaOH). The currents were low-pass-filtered at 5 kHz and recorded at 25 kHz sampling frequency. Series resistance compensation was applied at 100%, and leak subtraction was enabled. Experiments were performed at room temperature (27° C.). Appropriate filters for cell membrane resistance (typically >500 MΩ), series resistance (<10 MΩ), and Nav current magnitude (>500 pA at a test pulse from a resting holding potential of −120 mV) were routinely applied to exclude poor quality cells. Vehicle (0.5% DMSO) controls were run on each plate to enable correction for any compound independent decrease of currents over time.
We used a double voltage-pulse protocol designed specifically to assess whether the compound is a potentiator, inhibitor, or both. The protocol assesses these parameters at both rest and partially inactivated holding potentials. Currents were assessed by a test pulse of 0 mV from a holding potential at rest (−120 mV) before preconditioning channels to their appropriate mid-potential (V1/2) values (NaV1.5 V1/2=−90 mV) for 10 s. Peak current, time constant of inactivation (τ inactivation) and persistent current were measured.
Time constants (τ) for fast inactivation onset were derived by fitting a single exponential function to the decay of current obtained from the depolarizing test pulse following a holding potential of −120 mV.
where I is current amplitude, Iss is the plateau amplitude, α is the amplitude at time 0 for time constant τ, and t is time. Persistent sodium current was measured during a 10 ms test pulse from −120 mV to 0 mV. It was calculated as a percentage of peak sodium current at 5 ms.

T2 sequence (Q14524 whole entry): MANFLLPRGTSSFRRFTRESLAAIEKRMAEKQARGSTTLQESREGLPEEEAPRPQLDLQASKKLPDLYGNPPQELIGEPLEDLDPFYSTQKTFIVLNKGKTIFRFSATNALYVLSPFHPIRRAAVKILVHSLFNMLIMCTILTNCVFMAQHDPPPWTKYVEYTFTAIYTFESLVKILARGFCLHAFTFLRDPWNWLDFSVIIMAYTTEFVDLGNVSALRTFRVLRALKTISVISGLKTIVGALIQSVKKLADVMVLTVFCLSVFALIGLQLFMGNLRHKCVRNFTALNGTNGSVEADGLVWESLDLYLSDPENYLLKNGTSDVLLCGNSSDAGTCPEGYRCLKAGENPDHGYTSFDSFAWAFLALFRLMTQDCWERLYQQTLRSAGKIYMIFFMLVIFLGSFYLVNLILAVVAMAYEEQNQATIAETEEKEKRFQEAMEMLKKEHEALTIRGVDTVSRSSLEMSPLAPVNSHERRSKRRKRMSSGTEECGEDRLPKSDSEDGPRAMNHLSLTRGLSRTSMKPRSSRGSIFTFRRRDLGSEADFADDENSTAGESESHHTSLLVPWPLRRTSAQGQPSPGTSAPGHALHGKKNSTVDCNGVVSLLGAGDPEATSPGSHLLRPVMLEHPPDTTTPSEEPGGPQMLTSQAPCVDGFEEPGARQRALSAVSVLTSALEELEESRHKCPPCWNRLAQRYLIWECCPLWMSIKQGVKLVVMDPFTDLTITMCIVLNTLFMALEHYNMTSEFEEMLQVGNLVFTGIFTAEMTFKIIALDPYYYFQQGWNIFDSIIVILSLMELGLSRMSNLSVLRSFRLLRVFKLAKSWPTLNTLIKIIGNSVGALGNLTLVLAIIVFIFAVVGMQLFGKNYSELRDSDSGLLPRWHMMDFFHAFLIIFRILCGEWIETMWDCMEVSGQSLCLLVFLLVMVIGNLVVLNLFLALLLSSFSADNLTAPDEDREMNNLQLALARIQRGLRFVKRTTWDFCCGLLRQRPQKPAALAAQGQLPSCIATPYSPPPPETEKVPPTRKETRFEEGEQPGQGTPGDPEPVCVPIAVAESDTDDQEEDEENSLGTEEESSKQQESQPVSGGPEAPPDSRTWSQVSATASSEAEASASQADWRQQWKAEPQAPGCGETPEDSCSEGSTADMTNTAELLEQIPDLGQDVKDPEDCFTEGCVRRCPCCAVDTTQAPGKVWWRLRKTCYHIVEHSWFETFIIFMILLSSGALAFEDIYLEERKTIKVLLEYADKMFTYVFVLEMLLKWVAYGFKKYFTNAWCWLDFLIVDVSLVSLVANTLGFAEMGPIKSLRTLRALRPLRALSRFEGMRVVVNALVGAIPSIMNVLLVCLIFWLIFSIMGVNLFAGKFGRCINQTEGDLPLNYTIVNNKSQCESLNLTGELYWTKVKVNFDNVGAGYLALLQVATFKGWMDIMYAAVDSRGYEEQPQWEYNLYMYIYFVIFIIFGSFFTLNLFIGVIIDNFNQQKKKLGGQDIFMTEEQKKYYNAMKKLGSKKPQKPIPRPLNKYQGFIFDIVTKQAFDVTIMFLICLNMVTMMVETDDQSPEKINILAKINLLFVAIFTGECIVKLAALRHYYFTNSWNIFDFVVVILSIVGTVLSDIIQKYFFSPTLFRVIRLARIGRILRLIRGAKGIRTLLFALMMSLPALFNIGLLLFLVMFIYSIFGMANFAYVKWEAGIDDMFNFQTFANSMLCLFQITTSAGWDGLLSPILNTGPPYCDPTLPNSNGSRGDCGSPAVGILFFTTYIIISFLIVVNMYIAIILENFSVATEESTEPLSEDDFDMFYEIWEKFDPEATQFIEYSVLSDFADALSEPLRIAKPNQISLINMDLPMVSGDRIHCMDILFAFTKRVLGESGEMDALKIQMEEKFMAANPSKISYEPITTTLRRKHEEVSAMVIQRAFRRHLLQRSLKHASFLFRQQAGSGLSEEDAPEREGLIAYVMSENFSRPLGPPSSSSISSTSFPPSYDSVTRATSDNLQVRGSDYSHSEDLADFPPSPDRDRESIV
T2 sequence (Q07699 19-218 partner): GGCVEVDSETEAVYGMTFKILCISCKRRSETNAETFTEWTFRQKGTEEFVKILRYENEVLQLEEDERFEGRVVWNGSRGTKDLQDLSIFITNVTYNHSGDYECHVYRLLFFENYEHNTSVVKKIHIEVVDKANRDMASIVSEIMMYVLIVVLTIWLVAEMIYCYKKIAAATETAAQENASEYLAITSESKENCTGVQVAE

With `Cc1nc(-n2cccc2)sc1C(=O)N=c1[nH]c2ccccc2[nH]1` [AR-787, N-(1H-benzimidazol-2-yl)-4-methyl-2-pyrrol-1-yl-thiazole-5-carboxamide] the inhibition at 1 µM ([1]; 1 μM, at +20 mV, 37° C., read-out: reduction of Ito density) was 34%, the inhibition at 10 µM ([1]; 10 μM, at +20 mV, 37° C., read-out: reduction of Ito density) was 68% and the inhibition at 50 µM ([1]; 50 μM, at +20 mV, 37° C., read-out: reduction of Ito density) was 85.2%. It also gave an IC50 ([1]; estimated, read-out: IC50 for Ito inhibition) of about 8 µM and an inhibition at 50 µM [2] of 80%.
